Data on 8 compounds can be found in patent publication US5290795A, “Substituted urea compound and use” (Novo Nordisk N/A, priority 1990, dated 1994).

For assay [1], the target named is T1, 5-HT3 receptor (Mus musculus, UniProt P23979).
T1 construct: Harvested cells were homogenized in Tris buffer; endogenous in cells; host or cells: N1E-115 mouse neuroblastoma cells
T1 sequence (P23979 24-489): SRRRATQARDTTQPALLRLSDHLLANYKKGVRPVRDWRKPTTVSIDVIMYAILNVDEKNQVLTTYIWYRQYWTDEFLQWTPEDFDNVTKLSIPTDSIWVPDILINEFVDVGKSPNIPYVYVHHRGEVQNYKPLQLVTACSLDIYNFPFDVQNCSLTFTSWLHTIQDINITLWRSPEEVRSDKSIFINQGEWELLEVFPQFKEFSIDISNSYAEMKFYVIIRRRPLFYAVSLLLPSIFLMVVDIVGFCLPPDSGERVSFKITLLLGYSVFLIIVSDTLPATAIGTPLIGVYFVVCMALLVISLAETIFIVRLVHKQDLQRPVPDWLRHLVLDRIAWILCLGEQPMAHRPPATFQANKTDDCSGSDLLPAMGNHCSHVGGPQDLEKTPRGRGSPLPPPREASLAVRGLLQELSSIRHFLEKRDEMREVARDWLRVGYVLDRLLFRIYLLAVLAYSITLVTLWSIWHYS
In words: 5-HT3 receptor binding to N1E-115 neuroblastoma cells (3H-Quipazine displacement). As to conditions: for displacement of 3H-Quipazine binding: specificity of the assay, N1E-115 neuroblastoma cells, in words. The protocol: 5-HT3 Receptor Binding to N1E-115 Neuroblastoma Cells
The binding of 3H-quipazine to N1E-115 neuroblastoma cells in-vitro was determined by a modification of the method of Hoyer and Neijt (Hoyer, D. and Neijt, H. C., 1988, Molecular Pharmacology, 33:303-309). […] The cells were grown to a density of 8-15×10^7 cells per bottle and harvested by vigorous shaking. Harvested cells were homogenized in Tris buffer (20 mm, pH=7.5) containing 154 mM NaCl using a Brinkmann Polytron. The homogenate was centrifuged at 900×g and the supernatant was used directly in the binding assay. The supernatant was diluted at a concentration of 2×10^6 cells per ml in Tris buffer. Binding assays consisted of 50 μL 3H-Quipazine (1 nM final concentration), 250 μL membrane suspension, and 200 μL drug or buffer. Nonspecific binding was determined by the addition of 10 μM MDL 72222. Tubes were incubated at […] for 60 minutes, followed by filtration through GFB filters under vacuum. The filters were then washed with ice-cold Tris buffer.
Background: In a radioligand displacement assay an active substance lowers the binding of a labelled ligand.

Assay [2] addresses T2, 5-HT3 receptor (Cavia porcellus, UniProt O70212).
T2 construct: the terminal 15 cm of ileum removed, and 1.5-2.0 cm lengths prepared and mounted in 10 ml organ baths; from tissue; host or cells: isolated guinea pig terminal ileum
T2 sequence (O70212 24-490 limits assumed): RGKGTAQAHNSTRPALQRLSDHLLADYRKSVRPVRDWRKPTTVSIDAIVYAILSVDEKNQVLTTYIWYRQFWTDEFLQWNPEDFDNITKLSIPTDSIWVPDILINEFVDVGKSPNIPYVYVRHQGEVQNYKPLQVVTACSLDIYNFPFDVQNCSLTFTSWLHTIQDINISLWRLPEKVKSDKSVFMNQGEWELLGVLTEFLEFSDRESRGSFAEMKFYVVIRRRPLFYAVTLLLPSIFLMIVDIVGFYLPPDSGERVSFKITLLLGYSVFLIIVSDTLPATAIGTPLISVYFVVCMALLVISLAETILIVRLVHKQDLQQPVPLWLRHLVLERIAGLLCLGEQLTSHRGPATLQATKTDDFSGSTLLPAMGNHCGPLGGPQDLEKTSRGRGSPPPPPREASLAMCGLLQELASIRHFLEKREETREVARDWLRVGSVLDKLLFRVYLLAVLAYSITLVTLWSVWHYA
In words: Inhibition of 5-HT-induced contractions in isolated guinea pig ileum. It counts as cell-based. As to conditions: methysergide 10^-6 M, 20 min incubation, 5-HT contact time 30 sec, 37° C., read-out: A2 (concentration of the antagonist giving a dose ratio of 2) (converted). The protocol:
Inhibition of 5-HT-Induced Contractions in Isolated Guinea Pig Ileum
Compounds of formula (I) were tested for their 5HT3 -antagonist activity using the following method:
5-HT produces contractions of the guinea pig ileum via 2 different receptors. 1) direct contractions via 5-HT2 receptors on the muscle, 2) indirect contractions via 5-HT3 receptors on intrinsic gut neurones, producing acetylcholine release. By administering 5-HT to lengths of ileum in the presence of methysergide (to block 5-HT2 receptors) you can assay 5-HT3 receptor activity.
Guinea pigs were killed by means of cervical dislocation the terminal 15 cm of ileum removed, and 1.5-2.0 cm lengths prepared and mounted in 10 ml organ baths containing calcium deficient tyrodes of the following composition (mM) NaCl (136.9); KCl (2.68); CaCl2 (0.9); MgCl2 (1.05); NaCO3 (11.9); NaH2 PO4 (0.42); glucose (5.55) and containing methysergide (10^-6 M) maintained at 37° C. and gassed with 95% O2 and 5% CO2. The mechanical activity of the muscle was measured by a HSE 351 isometric transducer connected via a HSE bridge amplifier to a potentiometric pen recorder. […]
The maximum response to acetylcholine for each tissue is measured and the responses to 5-HT calculated as percentage maximum of the acetylcholine (Ach) maximum response in that tissue. The peak of the 5-HT response is measured. […]

For orientation: IC50 means the concentration needed to halve the response being measured. Higher therefore signals weaker potency.

Regarding `c1ccc2nc(N3CCNCC3)ccc2c1` [quipazine], the “displacement of 3H-Quipazine binding” value at 5-HT3 receptor [1] is recorded as “potent displacers”. As to `CN1[C@@H]2CCC[C@H]1C[C@@H](NC(=O)Nc1ccsc1-c1nc(C3CC3)no1)C2` [Example 4, N-(2-(3-Cyclopropyl-1,2,4-oxadiazol-5-yl)-3-thienyl)-N^1 - (endo-9-methyl-9-azabicyclo[3.3.1]non-3yl)urea], at 5-HT3 receptor [2], the Kb was 103 µM. On 5-HT3 receptor [1], the IC50 was determined as 0.0067 µM. With `CN1[C@@H]2CC[C@H]1C[C@@H](OC(=O)c1c[nH]c3ccccc13)C2` [ICS 205-930], at 5-HT3 receptor [1], the “displacement of 3H-Quipazine binding” value was “potent displacers”. `CCCCc1noc(-c2sccc2NC(=O)N[C@H]2C[C@H]3CCC[C@@H](C2)N3C)n1` [Example 7, N-(2-(3-Butyl-1,2,4-oxadiazol-5-yl)-3-thienyl)-N^1-(endo-9-methyl-9-azabicyclo[3.3.1]non-3-yl)urea]: the Kb on 5-HT3 receptor [2] is 24.8 µM. Besides, the half-inhibitory concentration (IC50) at 5-HT3 receptor [1] was 0.0023 µM. For the compound `COc1cc(N)c(Cl)cc1C(=O)NC1CN2CCC1CC2` (stereo not shown) [zacopride], on 5-HT3 receptor [1], the “displacement of 3H-Quipazine binding” value is “potent displacers”. Still for that read-out and setting: with `CN1[C@@H]2CC[C@H]1C[C@@H](OC(=O)c1cc(Cl)cc(Cl)c1)C2` [MDL 72222] the entry was “potent displacers”. Consider `O=C(c1ccc(F)cc1)C1CCN(CCn2c(=O)[nH]c3ccccc3c2=O)CC1` [ketanserin], for which the “displacement of 3H-Quipazine binding” value on 5-HT3 receptor [1] was “inability”. In the case of `CCCN(CCC)C1CCc2cccc(O)c2C1` (stereo not shown) [Example 8-OH-DPAT], on 5-HT3 receptor [1], the “displacement of 3H-Quipazine binding” value is reported as “inability”.
